# Where two headings read alike, the source gives them in different places. Ends that are not written are not given here. Peptide text beside a SMILES is read from it. * marks the point of attachment. Palmitoyl = CCCCCCCCCCCCCCCC(=O)*
# Key:
# [1] = biological target: T1, human GIP receptor (Homo sapiens, UniProt P48546); test: cAMP accumulation assay (HitHunter cAMP XS) in transiently transfected COS-7 cells expressing the human GIP receptor; format: cell-based; settings: for Emax at 10 µM: COS-7, read-out: Emax (10 μM), GIP receptor; for EC50: logEC50, GIP receptor, log value, cAMP, COS-7; for fold (fold change of native GIP), GIP receptor: EC50 relative to native GIP
# T1 construct: host or cells: COS-7 (transient, calcium phosphate; pCMV-Script vector)
# T1 sequence (P48546 22-466): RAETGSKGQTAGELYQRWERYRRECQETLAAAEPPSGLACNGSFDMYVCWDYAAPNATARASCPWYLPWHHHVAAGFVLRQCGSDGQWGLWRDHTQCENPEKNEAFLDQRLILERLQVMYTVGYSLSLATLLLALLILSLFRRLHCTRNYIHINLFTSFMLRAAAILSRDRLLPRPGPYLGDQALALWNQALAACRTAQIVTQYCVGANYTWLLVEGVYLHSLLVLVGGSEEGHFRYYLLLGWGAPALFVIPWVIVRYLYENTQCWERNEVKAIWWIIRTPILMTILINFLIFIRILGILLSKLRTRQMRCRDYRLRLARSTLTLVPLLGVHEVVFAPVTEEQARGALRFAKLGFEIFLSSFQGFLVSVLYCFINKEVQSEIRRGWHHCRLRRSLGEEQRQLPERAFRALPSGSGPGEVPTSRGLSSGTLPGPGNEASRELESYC
# Procedure: (§1) The day after, the cells were washed twice with Hepes buffered saline (HBS) buffer and incubated with HBS and 1 mM 3-isobutyl-1-methylxanthine (IBMX) for 30 min at 37° C. Ligands were added and incubated for 30 min at 37° C. The HitHunter™ cAMP XS assay (DiscoveRx) was carried out according to the manufacturer's instructions.
# [2] = biological target: T2, human GLP-2 receptor (Homo sapiens, UniProt O95838); test: cAMP accumulation assay (HitHunter cAMP XS) in transiently transfected COS-7 cells expressing the human GLP-2 receptor; format: cell-based; settings: for Emax at 10 µM: COS-7, read-out: Emax (10 μM), GLP-2 receptor; for fold (fold change of native GLP-2), GLP-2 receptor: EC50 relative to native GLP-2
# T2 construct: host or cells: COS-7 (transient, calcium phosphate; pCMV-Script vector)
# T2 sequence (O95838 1-553): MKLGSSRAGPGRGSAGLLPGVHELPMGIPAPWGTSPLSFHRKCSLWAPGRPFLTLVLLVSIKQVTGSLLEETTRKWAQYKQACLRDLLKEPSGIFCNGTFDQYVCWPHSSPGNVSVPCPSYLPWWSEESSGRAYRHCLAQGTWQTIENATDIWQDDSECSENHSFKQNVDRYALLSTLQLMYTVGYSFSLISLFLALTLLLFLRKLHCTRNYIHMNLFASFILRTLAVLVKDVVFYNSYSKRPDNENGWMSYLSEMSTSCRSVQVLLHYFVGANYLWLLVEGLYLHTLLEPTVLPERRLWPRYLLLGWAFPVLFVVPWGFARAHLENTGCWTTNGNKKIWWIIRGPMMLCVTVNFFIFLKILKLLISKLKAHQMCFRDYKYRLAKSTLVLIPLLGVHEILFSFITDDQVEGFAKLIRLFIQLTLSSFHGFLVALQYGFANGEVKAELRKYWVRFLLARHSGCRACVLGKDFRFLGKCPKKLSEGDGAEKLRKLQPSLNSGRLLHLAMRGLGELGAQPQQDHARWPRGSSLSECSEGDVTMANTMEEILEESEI
# Procedure: as §1
# [3] = logEC50, GLP-2 receptor, Table 2, cAMP, COS-7
# [4] = logEC50, GLP-2 receptor, Table 1, cAMP, COS-7
Compound,Emax at 10 µM [1],EC50 ([1]; Table 2),Emax at 10 µM [2],"EC50 [2, 3]","fold (fold change of native GIP), GIP receptor ([1]; Table 2)","fold (fold change of native GLP-2), GLP-2 receptor ([2]; Table 2)","fold (fold change of native GIP), GIP receptor ([1]; Table 1)",EC50 ([1]; Table 1),"fold (fold change of native GLP-2), GLP-2 receptor ([2]; Table 1)","EC50 [2, 4]",EC50 [2]
HADGTFIDDYSTILDNLAARDFINWLIQTKITD [Co-agonist 14],94%,,90%,,,,27 fold,2.34 nM,9.2 fold,10.7 nM,
HADGTFSSDYSTILDNLAAKDFINWLIQTKITD [Co-agonist 20],98%,,80%,,,,,,,,
HADGTFISDYSTILDNLAARDFINWLIQTKGTD [Co-agonist 16],95%,,74%,,,,6.7 fold,,68 fold,87.1 nM,
HAEGTFISDYSTILDNIHQQDFINWLIQTKITD [Co-agonist 8],100%,,22%,,,,66 fold,,,,> 10000 nM

# Further lines, with some results ahead:
Emax at 10 µM [1],EC50 ([1]; Table 2),Emax at 10 µM [2],"EC50 [2, 3]","fold (fold change of native GIP), GIP receptor ([1]; Table 2)","fold (fold change of native GLP-2), GLP-2 receptor ([2]; Table 2)","fold (fold change of native GIP), GIP receptor ([1]; Table 1)",EC50 ([1]; Table 1),"fold (fold change of native GLP-2), GLP-2 receptor ([2]; Table 1)","EC50 [2, 4]",Compound,EC50 [2]
100%,0.407 nM,72%,1.32 nM,,,,,,,CCCCCCCCCCCCCCCC(=O)N[C@@H](Cc1c[nH]cn1)C(=O)N[C@@H](C)C(=O)N[C@@H](CC(=O)O)C(=O)NCC(=O)N[C@H](C(=O)N[C@@H](Cc1ccccc1)C(=O)N[C@@H](CO)C(=O)N[C@@H](CO)C(=O)N[C@@H](CC(=O)O)C(=O)N[C@@H](Cc1ccc(O)cc1)C(=O)N[C@@H](CO)C(=O)N[C@H](C(=O)N[C@H](C(=O)N[C@@H](CC(C)C)C(=O)N[C@@H](CC(=O)O)C(=O)N[C@@H](CC(N)=O)C(=O)N[C@@H](CC(C)C)C(=O)N[C@@H](C)C(=O)N[C@@H](C)C(=O)N[C@@H](CCCNC(=N)N)C(=O)N[C@@H](CC(=O)O)C(=O)N[C@@H](Cc1ccccc1)C(=O)N[C@H](C(=O)N[C@@H](CC(N)=O)C(=O)N[C@@H](Cc1c[nH]c2ccccc12)C(=O)N[C@@H](CC(C)C)C(=O)N[C@H](C(=O)N[C@@H](CCC(N)=O)C(=O)N[C@H](C(=O)N[C@@H](CCCCN)C(=O)N[C@H](C(=O)N[C@H](C(=O)N[C@@H](CC(=O)O)C(=O)O)[C@@H](C)O)[C@@H](C)CC)[C@@H](C)O)[C@@H](C)CC)[C@@H](C)CC)[C@@H](C)CC)[C@@H](C)O)[C@@H](C)O [Co-agonist 22] (Palmitoyl-HADGTFSSDYSTILDNLAARDFINWLIQTKITD-OH),
100%,0.0302 nM,100%,0.309 nM,0.34 fold,0.26 fold,,,,,HADGTFISDYSTILDKLAARDFINWLIQTKITK [Co-agonist 26],
100%,0.151 nM,96%,,1.7 fold,0.62 fold,,,,,HADGTFISDYSKILDNLAARDFINWLIQTKITK [Co-agonist 24],
100%,,100%,,6.2 fold,0.47 fold,,,,,HADGTFISDYSTILDNLKARDFINWLIQTKITK [Co-agonist 27],
100%,,71%,20 nM,8.9 fold,17 fold,,,,,CCCCCCCCCCCCCCCC(=O)NCCCC[C@H](NC(=O)CNC(=O)[C@H](CCCCN)NC(=O)[C@@H](NC(=O)[C@H](CCC(N)=O)NC(=O)[C@@H](NC(=O)[C@H](CC(C)C)NC(=O)[C@H](Cc1c[nH]c2ccccc12)NC(=O)[C@H](CC(N)=O)NC(=O)[C@@H](NC(=O)[C@H](Cc1ccccc1)NC(=O)[C@H](CC(=O)O)NC(=O)[C@H](CCCNC(=N)N)NC(=O)[C@H](C)NC(=O)[C@H](C)NC(=O)[C@H](CC(C)C)NC(=O)[C@H](CC(N)=O)NC(=O)[C@H](CC(=O)O)NC(=O)[C@H](CC(C)C)NC(=O)[C@@H](NC(=O)[C@@H](NC(=O)[C@H](CO)NC(=O)[C@H](Cc1ccc(O)cc1)NC(=O)[C@H](CC(=O)O)NC(=O)[C@H](CO)NC(=O)[C@@H](NC(=O)[C@H](Cc1ccccc1)NC(=O)[C@@H](NC(=O)CNC(=O)[C@H](CC(=O)O)NC(=O)[C@H](C)NC(=O)[C@@H](N)Cc1c[nH]cn1)[C@@H](C)O)[C@@H](C)CC)[C@@H](C)O)[C@@H](C)CC)[C@@H](C)CC)[C@@H](C)CC)[C@@H](C)O)C(=O)N[C@@H](CCCCN)C(=O)O [Co-agonist 36],
99%,,68%,2.34 nM,5.4 fold,1.9 fold,,,,,CCCCCCCCCCCC(=O)NCCCC[C@H](NC(=O)CNC(=O)[C@H](CCCCN)NC(=O)[C@@H](NC(=O)[C@H](CCC(N)=O)NC(=O)[C@@H](NC(=O)[C@H](CC(C)C)NC(=O)[C@H](Cc1c[nH]c2ccccc12)NC(=O)[C@H](CC(N)=O)NC(=O)[C@@H](NC(=O)[C@H](Cc1ccccc1)NC(=O)[C@H](CC(=O)O)NC(=O)[C@H](CCCNC(=N)N)NC(=O)[C@H](C)NC(=O)[C@H](C)NC(=O)[C@H](CC(C)C)NC(=O)[C@H](CC(N)=O)NC(=O)[C@H](CC(=O)O)NC(=O)[C@H](CC(C)C)NC(=O)[C@@H](NC(=O)[C@@H](NC(=O)[C@H](CO)NC(=O)[C@H](Cc1ccc(O)cc1)NC(=O)[C@H](CC(=O)O)NC(=O)[C@H](CO)NC(=O)[C@@H](NC(=O)[C@H](Cc1ccccc1)NC(=O)[C@@H](NC(=O)CNC(=O)[C@H](CC(=O)O)NC(=O)[C@H](C)NC(=O)[C@@H](N)Cc1c[nH]cn1)[C@@H](C)O)[C@@H](C)CC)[C@@H](C)O)[C@@H](C)CC)[C@@H](C)CC)[C@@H](C)CC)[C@@H](C)O)C(=O)N[C@@H](CCCCN)C(=O)O [Co-agonist 35],
94%,33.9 nM,75%,,381 fold,5.0 fold,,,,,CCCCCCCCCCCCCCCC(=O)NCCCC[C@H](NC(=O)[C@H](C)NC(=O)[C@H](C)NC(=O)[C@H](CC(C)C)NC(=O)[C@H](CC(N)=O)NC(=O)[C@H](CC(=O)O)NC(=O)[C@H](CC(C)C)NC(=O)[C@@H](NC(=O)[C@@H](NC(=O)[C@H](CO)NC(=O)[C@H](Cc1ccc(O)cc1)NC(=O)[C@H](CC(=O)O)NC(=O)[C@H](CO)NC(=O)[C@H](CO)NC(=O)[C@H](Cc1ccccc1)NC(=O)[C@@H](NC(=O)CNC(=O)[C@H](CC(=O)O)NC(=O)[C@H](C)NC(=O)[C@@H](N)Cc1c[nH]cn1)[C@@H](C)O)[C@@H](C)O)[C@@H](C)CC)C(=O)N[C@@H](CC(=O)O)C(=O)N[C@@H](Cc1ccccc1)C(=O)N[C@H](C(=O)N[C@@H](CC(N)=O)C(=O)N[C@@H](Cc1c[nH]c2ccccc12)C(=O)N[C@@H](CC(C)C)C(=O)N[C@H](C(=O)N[C@@H](CCC(N)=O)C(=O)N[C@H](C(=O)N[C@@H](CCCCN)C(=O)N[C@H](C(=O)N[C@H](C(=O)N[C@@H](CC(=O)O)C(=O)O)[C@@H](C)O)[C@@H](C)CC)[C@@H](C)O)[C@@H](C)CC)[C@@H](C)CC [Co-agonist 21] (H-HADGTFSSDYSTILDNLAAK(Palmitoyl)DFINWLIQTKITD-OH; N-terminus and C-terminus assumed),
